Patent publication US3997557A, “Substituted N-aminoalkylpyrroles” (American Hoechst Corporation, priority 1974, dated 1976)

Assays:
isolated rabbit atrium = test: Isolated rabbit atrium, increase in functional refractory period (antiarrhythmic); settings: Oryctolagus cuniculus; 10^-5 molar
Method: The compounds of the invention are useful as antiarrhythmic agents because of their ability to alleviate cardiac arrhythmias. […] 198] wherein the compounds effect an increase in the functional refractory period. Compounds are dissolved in Krebs-Henseleit solution, and the percent change in the functional refractory period is monitored with an oscilloscope. […] Similarly at a concentration of 10^-^6 molar 1-(3-dimethylaminopropyl)-2-(p-bromophenyl)-4,5,6,7-tetrahydroindole hydrochloride and 1-(2-methylaminoethyl)-2-phenyl-1,4,5,6,7,8-hexahydrocyclohepta[b]pyrrole hydrochloride each effect a 150% increase in the functional refractory period.

central nervous system = test: Mouse observation procedure of S. Irwin, central nervous system depressant effects (tranquilizer); assay type: in vivo; settings: male COBS mice, behavior and reflex depression, muscle relaxation, read-out: minimum effective dose (MED)/Kilogram of body weight
Method: The compounds of the invention are useful as tranquilizers because of their depressant effects on the central nervous system. The depressant effects on the central nervous system were evaluated according to the mouse observation procedure of S. Irwin, Psychopharmacologia, 13, 222 (1968). Male COBS mice are dosed with the drug, and its effects on behavior and reflex depression together with muscle relaxation determined by the degree of deviation from control scores, with activity expressed in terms of minimum effective dose (MED). The effectiveness of compounds of the invention as tranquilizers is illustrated in Table I below.

[1] = test system: spontaneous hypertensive rat; test: Lowering of blood pressure in the spontaneous hypertensive rat, indirect tail cuff method; assay type: in vivo; settings: 100 mg/kg of body weight
Method: The compounds of this invention are also useful as antihypertensive agents because of their ability to lower blood pressure in mammals. […] 135. For example, at a dose of 100 mg/kg of body weight, the compounds shown in Table III below effect the corresponding decrease in systolic blood pressure.

[2] = test system: carrageenin-induced rat paw edema; test: Carrageenin-induced rat paw edema antiinflammatory assay; assay type: in vivo; settings: 200 mg/kg of body weight
From the text: The compounds of this invention are useful as antiinflammatory agents because of their ability to suppress inflammation in mammals. […] Exp. Biol. Med. III, 544 (1962)].

Compound	activation at 10 µM (isolated rabbit atrium) [%]	minimal effective dose (central nervous system) [mg/kg]	decrease in systolic blood pressure [1] [mm Hg]	inhibition in vivo at 200 mg/kg [2] [%]
CN(C)CCCn1c(-c2ccccc2)cc2c1CCCCC2.Cl [Example 40, 1-(3-dimethylaminopropyl)-2-phenyl-1,4,5,6,7,8-hexahydrocyclohepta[b]pyrrole hydrochloride]	275	25	50	
CCN(CC)CCCn1c(-c2ccccc2)cc2c1CCCCC2.Cl [Example 41, 1-(3-diethylaminopropyl)-2-phenyl-1,4,5,6,7,8-hexahydrocyclohepta[b]pyrrole hydrochloride]	264	50	49	50
